Values after ≈ are worked out from the molar mass of the structure shown. Blank lines part the entries; values can stand above or below the molecule they belong to.
Columns and labels:
[1] = system: choroidal neovascularisation; settings: mouse models of choroidal neovascularisation, previously shown; cited from earlier work
[2] = Porcine scleral permeability (modified Ussing chamber); type: in vitro ADME; settings: for Papp at 24 h, 10 μg/mL: pig, pH 7.4, porcine excised eye tissue, 10 μg/mL compound on donor side
Experimental: Scleral permeability was measured using a modified Ussing chamber assembly in the initial eye drop formulation containing 1% hydroxypropyl methyl cellulose, 0.2% tyloxapol, 3.4% dextrose, 0.006% benzalkonium chloride, and 0.025% ethylenediaminetetraacetic acid with 1% DMSO in PBS (pH 7.4). Porcine excised eye tissues were mounted in the chambers such that the episcleral side faced the donor chamber and the retinal side faced the receiver chamber. The chambers were filled with equal volumes of eye drop formulation, with (donor side) or without (receiver side) 10 μg/mL compound. After 24 hours tissue was removed from the chamber and the receiver side (“vitreous”) sampled. Tissue was dissected into sclera, choroid/RPE, and retina and homogenised. A tracer (SPHINX7; WO 2015/159103) was added, and tissue extracted by acetonitrile extraction as described in Batson et al (2017). Compounds were then analysed by mass spectrometry as described in Batson et al (2017).
To determine whether compounds could get across the sclera of a larger animal, porcine sclera was clamped between two chambers and compounds were added to the sclera with eye drop formulation added to the bottom chamber and compounds added to the top chamber. After 24 hours, the fluid from the bottom chamber (vitreous) and the retinal tissue was isolated and compounds purified by methanol or acetonitrile extraction and HPLC.

VEGF165b and VEGF165 = settings: cited from earlier work
SRPK1 = biological target: T1, SRPK1 (Homo sapiens, UniProt Q96SB4); assay: In vitro kinase assay (radioactive filter binding, 33P ATP); type: biochemical
T1 construct: purchased MRC Dundee Kinase Centre (external assay service)
Experimental: Kinase assays were carried out by the MRC Dundee Kinase Centre using a radioactive filter binding assay using ^33P ATP (Hastie, et al 2006. Nat Protoc. 2006; 1(2):968-71; Bain, et al 2007. Biochem J. 2007 Dec. 15; 408(3):297-315).

[3] = Solubility in eye drop formulation; type: physicochemical; settings: aqueous with cosolvent or surfactant or cyclodextrin; initial eye drop formulation (1% HPMC, 0.2% tyloxapol, 3.4% dextrose, 1% DMSO in PBS); read-out: Maximum limit of solubility
[4] = 0.5 mg monthly, at one year; cited from earlier work

T1 sequence (Q96SB4 whole entry): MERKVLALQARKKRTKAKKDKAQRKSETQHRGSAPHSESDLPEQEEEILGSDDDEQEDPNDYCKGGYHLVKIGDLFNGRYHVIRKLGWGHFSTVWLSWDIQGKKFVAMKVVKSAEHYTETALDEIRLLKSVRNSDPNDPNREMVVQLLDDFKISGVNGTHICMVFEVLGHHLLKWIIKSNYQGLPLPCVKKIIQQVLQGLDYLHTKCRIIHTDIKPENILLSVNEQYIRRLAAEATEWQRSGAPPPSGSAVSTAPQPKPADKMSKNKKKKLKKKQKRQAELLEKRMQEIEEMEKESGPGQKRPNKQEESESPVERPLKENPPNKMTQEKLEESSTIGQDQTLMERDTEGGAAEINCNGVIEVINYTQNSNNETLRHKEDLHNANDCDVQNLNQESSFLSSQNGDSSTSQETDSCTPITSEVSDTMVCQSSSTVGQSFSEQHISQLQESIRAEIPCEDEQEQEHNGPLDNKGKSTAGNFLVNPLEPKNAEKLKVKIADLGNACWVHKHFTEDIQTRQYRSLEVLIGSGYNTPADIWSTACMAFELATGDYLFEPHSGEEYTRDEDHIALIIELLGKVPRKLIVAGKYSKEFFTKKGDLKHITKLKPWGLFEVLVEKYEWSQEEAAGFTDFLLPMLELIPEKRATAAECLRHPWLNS

Molecule: O=C(Nc1cc(C(F)(F)F)ccc1N1CCN(Cc2ccccn2)CC1)c1ccc(-c2ccncc2)o1 [SPHINX31]
Eye drop concentration of maximum effect [1]: 2 µg/mL

Molecule: bevicizumab: an anti-VEGF antibody from which Lucentis was derived
Binding of VEGF165b relative to VEGF165 (VEGF165b and VEGF165): equal potency

Molecule: Cc1ccc(Nc2nccc(N(C)c3ccc4c(C)n(C)nc4c3)n2)cc1S(N)(=O)=O [pazopanib]
solubility [3]: 80 µg/mL (≈ 183 µM)

B1: Lucentis: a novel humanized anti-VEGF antibody fragment (antibody, chains of the INN, looked up, V domains shown)
VH: EVQLVESGGGLVQPGGSLRLSCAASGYDFTHYGMNWVRQAPGKGLEWVGWINTYTGEPTYAADFKRRFTFSLDTSKSTAYLQMNSLRAEDTAVYYCAKYPYYYGTSHWYFDVWGQGTLVTVSS
VL: DIQLTQSPSSLSASVGDRVTITCSASQDISNYLNWYQQKPGKAPKVLIYFTSSLHSGVPSRFSGSGSGTDFTLTISSLQPEDFATYYCQQYSTVPWTFGQGTKVEIK
modifications: Fab
notes: a novel humanized anti-VEGF antibody fragment
Patients who maintained visual acuity (loss of <15 letters) [4]: approximately 95% | Patients with improved vision (gain of ≥15 letters) [4]: ≤ 40%

The next lines start with the values.

Permeability across porcine sclera (in words) ([2]; 24 hours, FIG. 1): considerably lower permeability
Molecule: O=C(Nc1cc(C(F)(F)F)ccc1N1CCN(Cc2cc[nH]n2)CC1)c1ccc(C2CCOCC2)o1 [Compound R, N-(2-(4-((1H-pyrazol-3-yl)methyl)piperazin-1-yl)-5-(trifluoromethyl)-phenyl)-5-(tetrahydro-2H-pyran-4-yl)furan-2-carboxamide, reference compound]

IC50 (SRPK1): 10 nM | Papp at 24 h, 10 μg/mL [2]: 0.0442 ×10⁻⁶ cm/s
Molecule: Cn1ccc(CN2CCCN(c3ccc(C(F)(F)F)cc3NC(=O)c3ccc(C4CCOCC4)o3)CC2)n1 [Compound 2, N-(2-(4-((1-methyl-1H-pyrazol-3-yl)methyl)-1,4-diazepan-1-yl)-5-(trifluoromethyl)phenyl)-5-(tetrahydro-2H-pyran-4-yl)furan-2-carboxamide]

melting point: 148 to 150 °C | IC50 (SRPK1): 35 nM | Papp at 24 h, 10 μg/mL [2]: 0.0675 ×10⁻⁶ cm/s
Molecule: Cn1ccc(CN2CCCN(c3ccc(Cl)cc3NC(=O)c3ccc(C4CCOCC4)o3)CC2)n1 [Compound 3, N-(5-chloro-2-(4-((1-methyl-1H-pyrazol-3-yl)methyl)-1,4-diazepan-1-yl)phenyl)-5-(tetrahydro-2H-pyran-4-yl)furan-2-carboxamide]
